Where a name gives a salt, the structure may show the parent alone.

These results are taken from patent US10214531B2 (Institute for Drug Discovery, LLC, priority 2013, dated 2019).

For this test, the target named is recombinant human AMCase (Homo sapiens, UniProt Q9BZP6). Kind of test: Human AMCase Activity Assay. Type of test: biochemical. The note with it: recombinant hAMCase, 4-methylumbelliferyl chitobioside substrate, citrate buffer pH 5.2, 37° C., 60 minutes; read-out: Activity (IC50 value key). The method, boiled down:
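Recombinant human enzyme with fluorogenic 4-methylumbelliferyl β-D-N,N′-diacetylchitobioside substrate in citrate buffer, pH 5.2, 60 min at 37 °C in the dark with shaking. Read-out is 4MU fluorescence at 460 nm.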

recombinant human AMCase, sequence (Q9BZP6 22-476): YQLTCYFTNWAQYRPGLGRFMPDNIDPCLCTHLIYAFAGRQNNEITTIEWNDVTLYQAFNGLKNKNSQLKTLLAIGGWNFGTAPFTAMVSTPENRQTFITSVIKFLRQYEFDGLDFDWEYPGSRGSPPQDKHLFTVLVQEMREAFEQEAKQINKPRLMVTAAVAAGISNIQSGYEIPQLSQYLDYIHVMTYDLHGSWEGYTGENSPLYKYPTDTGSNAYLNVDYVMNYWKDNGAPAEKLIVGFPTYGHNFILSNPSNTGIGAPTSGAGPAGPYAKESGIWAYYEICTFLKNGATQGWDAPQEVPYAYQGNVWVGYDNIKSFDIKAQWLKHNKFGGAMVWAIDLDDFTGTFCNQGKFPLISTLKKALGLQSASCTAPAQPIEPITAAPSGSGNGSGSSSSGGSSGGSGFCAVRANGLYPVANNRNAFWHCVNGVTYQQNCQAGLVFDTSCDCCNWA

By IC50 is commonly meant the concentration at which inhibition is half-maximal. For the compound `CN(C1CCN(c2nc(N)n[nH]2)CC1)C(CO)Cc1ccc(Cl)cc1` (centres unmarked) [Example 130, 2-((1-(3-amino-1H-1,2,4-triazol-5-yl)piperidin-4-yl)(methyl)amino)-3-(4-chlorophenyl)propan-1-ol dihydrochloride], the half-maximal inhibitory concentration (IC50) fell in the range of 100 to 1000 nM. For `CN(CCc1cccnc1)C1CCN(c2nc(N)n[nH]2)CC1` [Example 131, 1-(3-amino-1H-1,2,4-triazol-5-yl)-N-methyl-N-(2-(pyridin-3-yl)ethyl)piperidin-4-amine dihydrochloride], the IC50 fell in the range of 10000 to 100000 nM. Next, `Nc1nc(N2CCC(N(CCc3ccc(Cl)cc3)Cc3ccc(Cl)cc3)CC2)n[nH]1` [Example 134, 1-(3-amino-1H-1,2,4-triazol-5-yl)-N-(4-chlorobenzyl)-N-(4-chlorophenethyl)piperidin-4-amine]: less than 100 nM; `Nc1n[nH]c(N2CCC(N(CCc3ccc(Cl)cc3)[C@H](CO)c3ccccc3)CC2)n1` [Example 135, (S)-2-((1-(3-amino-1H-1,2,4-triazol-5-yl)piperidin-4-yl)(4-chlorophenethyl)amino)-2-phenylethan-1-ol]: less than 100 nM. Consider `CN(Cc1nc2ccccc2[nH]1)C1CCN(c2nc(N)n[nH]2)CC1` [Example 136, N-((1H-benzo[d]imidazol-2-yl)methyl)-1-(3-amino-1H-1,2,4-triazol-5-yl)-N-methylpiperidin-4-aminetrihydrochloride], for which the IC50 is more than 100000 nM.

For the compound `Nc1n[nH]c(N2CCC(N(CCc3ccc(Cl)cc3)Cc3ccccc3F)CC2)n1` [Example 137, 1-(3-amino-1H-1,2,4-triazol-5-yl)-N-(4-chlorophenethyl)-N-(2-fluorobenzyl)piperidin-4-amine dihydrochloride], the IC50 was less than 100 nM. Next, `C[C@H](Cc1ccc(Cl)cc1)N(C)C1CCN(c2nc(N)n[nH]2)CC1` [Example 139, (R)-1-(3-amino-1H-1,2,4-triazol-5-yl)-N-(1-(4-chlorophenyl)propan-2-yl)-N-methylpiperidin-4-amine dihydrochloride]: 1000 to 10000 nM; `CC(CN(C)C1CCN(c2nc(N)n[nH]2)CC1)c1ccc(Cl)cc1` (centres unmarked) [Example 140, 1-(3-amino-1H-1,2,4-triazol-5-yl)-N-(2-(4-chlorophenyl)propyl)-N-methylpiperidin-4-amine dihydrochloride]: 10000 to 100000 nM. For `CC(Cc1ccc(Cl)cc1)N(C)C1CCN(c2nc(N)n[nH]2)CC1` (centres unmarked) [Example 141, 1-(3-amino-1H-1,2,4-triazol-5-yl)-N-(1-(4-chlorophenyl)propan-2-yl)-N-methylpiperidin-4-amine dihydrochloride], the IC50 fell in the range of 100 to 1000 nM. Next, `N#Cc1ccc(CN(CCc2ccc(Cl)cc2)C2CCN(c3nc(N)n[nH]3)CC2)cc1` [Example 142, 4-(((1-(3-amino-1H-1,2,4-triazol-5-yl)piperidin-4-yl)(4-chlorophenethyl)amino)methyl)benzonitrile]: less than 100 nM; `Nc1n[nH]c(N2CCC(N(CCc3ccc(Cl)cc3)Cc3ccc(F)c4ccccc34)CC2)n1` [Example 144, 1-(3-amino-1H-1,2,4-triazol-5-yl)-N-(4-chlorophenethyl)-N-((4-fluoronaphthalen-1-yl)methyl)piperidin-4-amine]: less than 100 nM. As for `Nc1nc(N2CCC(N(CCc3ccc(Cl)cc3)Cc3ccc(F)cc3Cl)CC2)n[nH]1` [Example 145, 1-(3-amino-1H-1,2,4-triazol-5-yl)-N-(2-chloro-4-fluorobenzyl)-N-(4-chlorophenethyl)piperidin-4-amine], the figure is less than 100 nM. As for `Nc1n[nH]c(N2CCC(N(CCc3ccc(Br)cc3)Cc3ccccc3)CC2)n1` [Example 146, 1-(3-amino-1H-1,2,4-triazol-5-yl)-N-benzyl-N-(4-bromophenethyl)piperidin-4-amine], the figure is less than 100 nM; as for `CC(CNC1CCN(c2nc(N)n[nH]2)CC1)c1ccc(Cl)cc1` (centres unmarked) [Example 147, 1-(3-amino-1H-1,2,4-triazol-5-yl)-N-(2-(4-chlorophenyl)propyl)piperidin-4-aminedihydrochloride], 10000 to 100000 nM; as for `CN(Cc1ccc(Cl)cc1)C1CCN(c2nc(N)n[nH]2)CC1` [Example 148, 1-(3-amino-1H-1,2,4-triazol-5-yl)-N-(4-chlorobenzyl)-N-methylpiperidin-4-amine dihydrochloride], more than 100000 nM. Regarding `CN(CCc1ccc(Cl)cc1)C1CCN(c2nc(N)n[nH]2)CC1F` (centres unmarked) [Example 150, 1-(3-amino-1H-1,2,4-triazol-5-yl)-N-(4-chlorophenethyl)-3-fluoro-N-methylpiperidin-4-amine], the IC50 lay in the range of 1000 to 10000 nM. Next, `CC(Cc1ccc(Cl)cc1)NC1CCN(c2nc(N)n[nH]2)CC1` (centres unmarked) [Example 151, 1-(3-amino-1H-1,2,4-triazol-5-yl)-N-(1-(4-chlorophenyl)propan-2-yl)piperidin-4-amine dihydrochloride]: 1000 to 10000 nM. As for `COc1ccc(CN(CCc2ccc(Cl)cc2)C2CCN(c3nc(N)n[nH]3)CC2)cc1` [Example 152, 1-(3-amino-1H-1,2,4-triazol-5-yl)-N-(4-chlorophenethyl)-N-(4-methoxybenzyl)piperidin-4-amine], the figure is less than 100 nM; as for `CN(C1CCN(c2nc(N)n[nH]2)CC1)[C@H](CO)Cc1ccc(Cl)cc1` [Example 153, (S)-2-((1-(3-amino-1H-1,2,4-triazol-5-yl)piperidin-4-yl)(methyl)amino)-3-(4-chlorophenyl)propan-1-ol], 100 to 1000 nM; as for `CC1CN(c2nc(N)n[nH]2)CCC1N(C)CCc1ccc(Cl)cc1` (centres unmarked) [Example 154, 1-(3-amino-1H-1,2,4-triazol-5-yl)-N-(4-chlorophenethyl)-N,3-dimethylpiperidin-4-amine dihydrochloride], 100 to 1000 nM.

Consider `Nc1nc(N2CCC(N(CCc3ccc(Cl)cc3)Cc3cccc(C(F)(F)F)c3)CC2)n[nH]1` [Example 156, 1-(3-amino-1H-1,2,4-triazol-5-yl)-N-(4-chlorophenethyl)-N-(3-(trifluoromethyl)benzyl)piperidin-4-amine], for which the IC50 was less than 100 nM. Next, `CN(CCc1ccccn1)C1CCN(c2nc(N)n[nH]2)CC1` [Example 157, 1-(3-amino-1H-1,2,4-triazol-5-yl)-N-methyl-N-(2-(pyridin-2-yl)ethyl)piperidin-4-amine trihydrochloride]: 10000 to 100000 nM; `CC(Cc1ccc(Cl)cc1)N(Cc1ccccc1)C1CCN(c2nc(N)n[nH]2)CC1` (centres unmarked) [Example 159, 1-(3-amino-1H-1,2,4-triazol-5-yl)-N-benzyl-N-(1-(4-chlorophenyl)propan-2-yl)piperidin-4-amine dihydrochloride]: less than 100 nM; `CCC(Cc1ccc(Cl)cc1)N(C)C1CCN(c2nc(N)n[nH]2)CC1` (centres unmarked) [Example 160, 1-(3-amino-1H-1,2,4-triazol-5-yl)-N-(1-(4-chlorophenyl)butan-2-yl)-N-methylpiperidin-4-amine]: 1000 to 10000 nM. Consider `Cc1cccc(Cl)c1CN(CCc1ccc(Cl)cc1)C1CCN(c2nc(N)n[nH]2)CC1` [Example 161, 1-(3-amino-1H-1,2,4-triazol-5-yI)-N-(2-chloro-6-methylbenzyl)-N-(4-chlorophenethyl)piperidin-4-amine], for which the IC50 is less than 100 nM. Next, `Nc1n[nH]c(N2CCC(N(CCc3ccc(Cl)cc3)CCc3ccc(Cl)cc3)CC2)n1` [Example 162, 1-(3-amino-1H-1,2,4-triazol-5-yl)-N,N-bis(4-chlorophenethyl)piperidin-4-amine]: less than 100 nM; `Nc1n[nH]c(N2CCC(N(CCc3ccc(Cl)cc3)Cc3ccc(Cl)cc3Cl)CC2)n1` [Example 163, 1-(3-amino-1H-1,2,4-triazol-5-yl)-N-(4-chlorophenethyl)-N-(2,4-dichlorobenzyl)piperidin-4-amine]: less than 100 nM. As for `Nc1n[nH]c(N2CCC(N(CCc3ccc(Cl)cc3)Cc3ccccc3CO)CC2)n1` [Example 164, (2-(((1-(3-amino-1H-1,2,4-triazol-5-yl)piperidin-4-yl)(4-chlorophenethyl)amino)methyl)phenyl)methanol dihydrochloride], the figure is less than 100 nM; as for `CN(CCc1ccc(Br)cc1)C1CCN(c2nc(N)n(C)n2)CC1` [Example 166, 1-(5-amino-1-methyl-1H-1,2,4-triazol-3-yl)-N-(4-bromophenethyl)-N-methylpiperidin-4-amine], more than 100000 nM. Next, `Nc1n[nH]c(N2CCC(N(CCc3ccc(Br)cc3)Cc3ccc(F)c4ccccc34)CC2)n1` [Example 167, 1-(3-amino-1H-1,2,4-triazol-5-yl)-N-(4-bromophenethyl)-N-((4-fluoronaphthalen-1-yl)methyl)piperidin-4-amine]: less than 100 nM; `Nc1n[nH]c(N2CCC(N(CCc3ccc(Br)cc3)Cc3cccc4cnccc34)CC2)n1` [Example 168, 1-(3-amino-1H-1,2,4-triazol-5-yl)-N-(4-bromophenethyl)-N-(isoquinolin-5-ylmethyl)piperidin-4-amine]: less than 100 nM; `CN(CCc1ccccc1C(F)(F)F)C1CCN(c2nc(N)n[nH]2)CC1` [Example 169, 1-(3-amino-1H-1,2,4-triazol-5-yl)-N-methyl-N-(2-(trifluoromethyl)phenethyl)piperidin-4-amine]: 1000 to 10000 nM. Regarding `CN(CCc1ccc2c(c1)OCO2)C1CCN(c2nc(N)n[nH]2)CC1` [Example 170, 1-(3-amino-1H-1,2,4-triazol-5-yl)-N-(2-(benzo[d][1,3]dioxol-5-yl)ethyl)-N-methylpiperidin-4-amine], the IC50 lay within 1000 to 10000 nM. `COc1ccccc1CCN(C)C1CCN(c2nc(N)n[nH]2)CC1` [Example 172, 1-(3-amino-1H-1,2,4-triazol-5-yl)-N-(2-methoxyphenethyl)-N-methylpiperidin-4-amine]: the IC50 was 10000 to 100000 nM.

For `COc1ccc(CCN(C)C2CCN(c3nc(N)n[nH]3)CC2)cc1OC` [Example 173, 1-(3-amino-1H-1,2,4-triazol-5-yl)-N-(3,4-dimethoxyphenethyl)-N-methylpiperidin-4-amine], the IC50 is 10000 to 100000 nM.
